The record followed here is publication PMC7756582, “Prodrugs of γ‐Alkyl‐Modified Nucleoside Triphosphates: Improved Inhibition of HIV Reverse Transcriptase” (Angewandte Chemie (International Ed. in English), 2020).

In the assay the target is T1, human DNA polymerase α (Homo sapiens, UniProt P09884).
T1 construct: purchased Chimerx
T1 sequence (P09884 1-1462): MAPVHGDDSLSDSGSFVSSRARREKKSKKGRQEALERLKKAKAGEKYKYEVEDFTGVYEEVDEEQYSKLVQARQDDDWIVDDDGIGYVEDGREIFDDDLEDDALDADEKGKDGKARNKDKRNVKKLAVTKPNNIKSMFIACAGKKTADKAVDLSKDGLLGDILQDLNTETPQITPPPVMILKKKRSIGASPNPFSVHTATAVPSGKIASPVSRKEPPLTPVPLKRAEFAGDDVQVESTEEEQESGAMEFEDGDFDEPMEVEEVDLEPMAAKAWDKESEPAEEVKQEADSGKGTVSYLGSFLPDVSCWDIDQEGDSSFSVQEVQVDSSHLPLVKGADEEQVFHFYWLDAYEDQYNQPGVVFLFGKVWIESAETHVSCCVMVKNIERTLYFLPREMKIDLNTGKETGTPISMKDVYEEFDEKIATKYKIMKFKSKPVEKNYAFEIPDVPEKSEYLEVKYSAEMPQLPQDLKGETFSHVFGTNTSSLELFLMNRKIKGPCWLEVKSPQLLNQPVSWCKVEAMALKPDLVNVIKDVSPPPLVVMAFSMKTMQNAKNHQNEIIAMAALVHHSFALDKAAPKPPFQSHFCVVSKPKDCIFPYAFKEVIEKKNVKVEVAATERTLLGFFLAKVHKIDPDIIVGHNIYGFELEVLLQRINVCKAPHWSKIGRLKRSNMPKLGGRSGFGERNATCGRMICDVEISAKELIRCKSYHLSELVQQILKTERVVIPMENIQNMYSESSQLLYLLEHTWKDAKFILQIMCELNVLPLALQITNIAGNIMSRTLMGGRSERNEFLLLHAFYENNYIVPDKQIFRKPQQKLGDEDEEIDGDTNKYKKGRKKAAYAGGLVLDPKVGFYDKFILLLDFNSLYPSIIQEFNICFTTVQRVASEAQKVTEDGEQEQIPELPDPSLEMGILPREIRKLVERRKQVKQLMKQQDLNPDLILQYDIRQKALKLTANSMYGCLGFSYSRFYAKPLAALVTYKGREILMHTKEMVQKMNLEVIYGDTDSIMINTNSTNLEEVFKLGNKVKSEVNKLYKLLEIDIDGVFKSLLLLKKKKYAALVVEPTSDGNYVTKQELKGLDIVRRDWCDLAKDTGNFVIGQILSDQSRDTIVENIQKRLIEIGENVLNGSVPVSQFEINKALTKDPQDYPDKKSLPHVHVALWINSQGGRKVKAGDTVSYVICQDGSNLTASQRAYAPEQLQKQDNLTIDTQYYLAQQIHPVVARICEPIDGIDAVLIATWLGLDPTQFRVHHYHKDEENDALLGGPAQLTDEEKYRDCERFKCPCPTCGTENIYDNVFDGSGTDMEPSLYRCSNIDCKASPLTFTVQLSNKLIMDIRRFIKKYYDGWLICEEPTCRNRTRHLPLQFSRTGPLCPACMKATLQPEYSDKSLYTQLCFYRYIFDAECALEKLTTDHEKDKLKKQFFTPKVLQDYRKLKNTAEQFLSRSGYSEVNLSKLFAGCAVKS
The assay can be described thus: Primer extension assay with human DNA polymerase α. Type of assay: biochemical. As to conditions: dNTPs 250 μM, Pol α 4 U, 60 min. Here is the method: Two different set‐ups have been used. First, a mixture of dATP, dCTP, dGTP, and γ‐alkyl‐TTP (N*) or ‐d4TTP (T*) was used as a mixture. The results obtained from these experiments were compared to those in which just γ‐alkyl‐TTP (N) or d4TTP (T) was used. In each experiment a primer extension without added polymerase (negative control, ‐ lane) and an experiment in which all four canonical NTPs were added (positive control, +lane) were used as controls.
Anti-HIV activity assay: Inhibition of HIV-1(IIIB)- and HIV-2(ROD)-induced cytopathicity in wild-type CEM/0 and thymidine kinase-deficient CEM/TK- cell cultures was measured in microtiter 96-well plates containing ~3·105 CEM cells/mL infected with 100 CCID50 of HIV per milliliter and containing appropriate dilutions of the test compounds. After 4−5 days of incubation at 37 °C in a CO2-controlled humidified atmosphere, CEM giant (syncytium) cell formation was examined microscopically. The EC50 (50% effective concentration) was defined as the compound concentration required to inhibit HIV-induced giant cell formation by 50%. […]
2) For HIV- RT assay: The final assay solution (10 µL) consists of 50 mM Tris-HCl (pH 8.6 at 22 °C), 10 mM MgCl2, 40mM KCl, dNTPs 66 µM, HIV RT 6 U, Hybrid 0.32 µM in a reaction volume of 10 µL, incubated 37 °C for 15 min, 80 °C for 3 min; 50 mA, 45w for 4 h. […] The result was visualized by fluorescence imaging. […]

Take `Cc1cn(C2C=CC(COP(=O)(O)OP(=O)(O)OP(=O)(O)O)O2)c(=O)[nH]c1=O` (stereo not shown) [2 t, d4TTP, reference compound]: the “primer extension by DNA polymerase α (substrate properties)” value was “substrate”.
